Consider five compounds from publication PMC10651654 (Clinical and Translational Science, 2023).

Broadly, the EC50 is the concentration at which the effect is half-maximal. In general, IC50 refers to the concentration at which inhibition is half-maximal. A higher IC50 goes with lower potency. What is called Papp is the rate of passage across a membrane or cell layer, normalised by area and donor concentration. The Ki is a dissociation constant, usually derived from enzyme kinetics or from competition with a known ligand. The low end stands for higher affinity, the high end for lower affinity. As a reminder, the fraction unbound is the share of the substance not bound to proteins or other matrix. High values mean much free substance, low ones little free substance. One may read the solubility as the concentration that dissolves in the medium under given conditions. The low end stands for little dissolved substance, the high end for much dissolved substance. The logD is the decadic logarithm of the distribution of all forms, ionised or not, between an organic phase and buffer at a given pH. What is called pKa is the negative logarithm of the acid dissociation constant.

Structures are written as SMILES. Values after ≈ are worked out from the molar mass of the structure shown. Like-named read-outs stand apart in the source and are kept apart here. Some results are limits rather than exact numbers.

Data set [1] in a line: PBPK drug-drug interaction simulations. Set-up: species or system human.
The subject of data set [2] is CYP3A4. Conditions: ref GastroPlus user manual[10], cited from earlier work.
In data set [3] the test system is CYP2B6. Conditions: source cell empty, row above: ref GastroPlus user manual[10]; cited from earlier work.
Data set [4] deals with T1, CYP3A4 (Homo sapiens, UniProt P08684). The data set is described as follows: biochemical. Format: in vitro ADME.
A short description of data set [5]: Apparent permeability in Caco-2 cells. Format: in vitro ADME. Conditions: human. For orientation: Caco-2 monolayers are a common model of the intestinal barrier.
For data set [6] the following is noted: cited from earlier work.
Data set [7] has as its target T2, BCRP (Homo sapiens, UniProt Q9UNQ0).
T2 sequence (Q9UNQ0 1-655): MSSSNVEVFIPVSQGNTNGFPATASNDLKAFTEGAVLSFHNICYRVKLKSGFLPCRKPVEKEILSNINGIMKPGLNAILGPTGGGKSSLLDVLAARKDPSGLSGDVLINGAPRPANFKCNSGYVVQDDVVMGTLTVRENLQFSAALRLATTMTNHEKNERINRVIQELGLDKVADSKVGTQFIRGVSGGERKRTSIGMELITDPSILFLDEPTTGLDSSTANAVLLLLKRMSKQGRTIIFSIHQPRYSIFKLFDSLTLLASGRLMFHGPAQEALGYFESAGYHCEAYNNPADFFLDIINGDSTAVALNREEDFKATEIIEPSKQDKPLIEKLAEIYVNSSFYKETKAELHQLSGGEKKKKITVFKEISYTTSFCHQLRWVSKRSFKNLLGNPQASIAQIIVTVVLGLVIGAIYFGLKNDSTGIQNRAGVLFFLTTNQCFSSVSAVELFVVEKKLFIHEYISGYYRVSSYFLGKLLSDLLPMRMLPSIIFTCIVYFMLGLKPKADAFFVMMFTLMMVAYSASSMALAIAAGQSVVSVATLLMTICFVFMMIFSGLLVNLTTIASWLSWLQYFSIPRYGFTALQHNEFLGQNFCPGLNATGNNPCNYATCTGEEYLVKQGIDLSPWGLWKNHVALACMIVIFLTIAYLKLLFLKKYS
The data set is described as follows: BCRP inhibition in BCRP-transfected cell monolayers. The data set is classed as in vitro ADME.

Data set [8] can be described thus: PBPK model. Conditions: human, oral, 600 mg.
In data set [9] the target is T3, OATP1B1 (Homo sapiens, UniProt Q9Y6L6).
T3 sequence (Q9Y6L6 1-691): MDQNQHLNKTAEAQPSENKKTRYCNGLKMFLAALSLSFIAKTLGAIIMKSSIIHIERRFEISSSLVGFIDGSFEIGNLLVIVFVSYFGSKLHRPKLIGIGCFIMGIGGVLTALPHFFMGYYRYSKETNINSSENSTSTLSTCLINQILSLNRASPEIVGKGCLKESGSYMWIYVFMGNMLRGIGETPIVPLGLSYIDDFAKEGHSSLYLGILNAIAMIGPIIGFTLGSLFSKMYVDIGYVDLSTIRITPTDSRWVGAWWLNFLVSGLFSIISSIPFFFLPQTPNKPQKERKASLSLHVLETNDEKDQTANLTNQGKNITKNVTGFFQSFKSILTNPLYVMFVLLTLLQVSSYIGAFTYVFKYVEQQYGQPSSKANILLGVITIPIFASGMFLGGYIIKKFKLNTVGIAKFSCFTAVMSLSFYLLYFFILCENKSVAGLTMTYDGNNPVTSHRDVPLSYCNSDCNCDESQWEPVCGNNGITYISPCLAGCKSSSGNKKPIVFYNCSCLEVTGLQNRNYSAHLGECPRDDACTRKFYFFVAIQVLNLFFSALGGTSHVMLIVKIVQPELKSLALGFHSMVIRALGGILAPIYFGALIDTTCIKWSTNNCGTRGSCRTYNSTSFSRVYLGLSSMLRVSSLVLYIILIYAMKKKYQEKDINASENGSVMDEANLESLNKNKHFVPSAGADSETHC
The data set can be described thus: OATP1B1 inhibition. Format: in vitro ADME.

Data set [10] in a line: Clinical drug-drug interaction studies. The data set is classed as in vivo, human.
In data set [11] the target is T4, OATP1B3 (Homo sapiens, UniProt Q9NPD5).
T4 sequence (Q9NPD5 1-702): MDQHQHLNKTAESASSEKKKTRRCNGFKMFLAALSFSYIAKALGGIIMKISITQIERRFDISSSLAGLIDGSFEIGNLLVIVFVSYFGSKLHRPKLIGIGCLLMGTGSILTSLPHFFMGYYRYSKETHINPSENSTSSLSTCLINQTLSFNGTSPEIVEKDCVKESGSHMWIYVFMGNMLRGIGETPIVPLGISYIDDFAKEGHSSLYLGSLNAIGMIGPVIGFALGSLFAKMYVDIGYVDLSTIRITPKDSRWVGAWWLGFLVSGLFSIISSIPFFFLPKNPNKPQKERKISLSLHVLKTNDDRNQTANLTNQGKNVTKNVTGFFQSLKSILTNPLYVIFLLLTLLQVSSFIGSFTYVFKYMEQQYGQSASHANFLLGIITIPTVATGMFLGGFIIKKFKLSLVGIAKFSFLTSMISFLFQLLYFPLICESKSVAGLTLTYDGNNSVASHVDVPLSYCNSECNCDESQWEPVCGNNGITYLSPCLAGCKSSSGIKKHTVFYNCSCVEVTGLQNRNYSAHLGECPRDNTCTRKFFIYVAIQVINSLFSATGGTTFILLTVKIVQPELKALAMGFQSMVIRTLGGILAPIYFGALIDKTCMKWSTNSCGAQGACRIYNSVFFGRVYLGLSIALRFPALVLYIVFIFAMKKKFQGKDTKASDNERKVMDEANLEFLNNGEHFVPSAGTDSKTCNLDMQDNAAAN
The data set is described as follows: OATP1B3 inhibition. Format: in vitro ADME.

Data set [12] deals with T5, CYP2C8 (Homo sapiens, UniProt P10632).
T5 sequence (P10632 1-490): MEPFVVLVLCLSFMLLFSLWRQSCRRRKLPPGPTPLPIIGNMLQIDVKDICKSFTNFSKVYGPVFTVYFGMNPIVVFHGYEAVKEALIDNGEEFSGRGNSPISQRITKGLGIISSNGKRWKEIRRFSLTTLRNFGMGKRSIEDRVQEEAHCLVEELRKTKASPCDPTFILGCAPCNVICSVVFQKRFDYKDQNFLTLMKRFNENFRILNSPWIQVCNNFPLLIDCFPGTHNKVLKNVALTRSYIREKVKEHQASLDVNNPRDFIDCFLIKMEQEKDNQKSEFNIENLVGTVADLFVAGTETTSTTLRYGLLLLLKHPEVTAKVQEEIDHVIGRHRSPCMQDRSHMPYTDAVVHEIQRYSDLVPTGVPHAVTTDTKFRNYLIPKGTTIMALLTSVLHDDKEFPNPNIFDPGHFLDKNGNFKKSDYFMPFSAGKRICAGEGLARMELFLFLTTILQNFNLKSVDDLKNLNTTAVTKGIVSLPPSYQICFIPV
The data set is described as follows: CYP2C8 inhibition. Format: in vitro ADME.

Data set [13] deals with P-gp (Homo sapiens, UniProt P08183). The data set is described as follows: P-gp inhibition in P-gp-transfected cell monolayers. Format: in vitro ADME.
For data set [14] the following is noted: cited from earlier work. This is another data set of the same source.
Data set [15] concerns the target T1, CYP3A4. The data set is classed as in vitro ADME. The conditions noted are these: percent compound remaining after 60 min in presence of NADPH.
Data set [16] addresses CYP2C9 (Homo sapiens, UniProt P11712). The data set is described as follows: CYP2C9 inhibition. Format: in vitro ADME.
The nature of data set [17]: Physicochemical input parameters.
In data set [18] the test system is other CYP isoforms. The data set is described as follows: In vitro metabolism of [14C]-ziritaxestat by CYP isoforms. Format: in vitro ADME. The conditions noted are these: human, CYP isoforms other than CYP3A4, 60 min.
The conditions of data set [19]: cited from earlier work. The source holds these as a separate data set.
Data set [20] deals with T1, CYP3A4. Conditions: data on file.
[21] abbreviates: pravastatin probe verification, interaction with gemfibrozil (OATP1B1 inhibitor).

T1 sequence (P08684 whole entry): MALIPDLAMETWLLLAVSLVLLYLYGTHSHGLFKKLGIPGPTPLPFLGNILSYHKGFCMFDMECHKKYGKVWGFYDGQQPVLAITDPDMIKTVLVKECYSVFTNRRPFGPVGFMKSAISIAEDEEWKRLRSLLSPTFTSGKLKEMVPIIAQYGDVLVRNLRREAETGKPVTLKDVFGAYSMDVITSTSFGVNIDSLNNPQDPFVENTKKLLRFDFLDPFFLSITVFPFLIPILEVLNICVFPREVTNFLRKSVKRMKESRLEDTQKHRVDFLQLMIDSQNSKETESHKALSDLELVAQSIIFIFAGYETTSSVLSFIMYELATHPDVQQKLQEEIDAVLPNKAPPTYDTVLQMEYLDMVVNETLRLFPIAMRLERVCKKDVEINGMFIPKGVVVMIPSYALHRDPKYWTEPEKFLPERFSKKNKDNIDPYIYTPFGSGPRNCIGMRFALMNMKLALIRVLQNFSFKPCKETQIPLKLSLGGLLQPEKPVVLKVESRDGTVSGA
CYP2C9, sequence (P11712 whole entry): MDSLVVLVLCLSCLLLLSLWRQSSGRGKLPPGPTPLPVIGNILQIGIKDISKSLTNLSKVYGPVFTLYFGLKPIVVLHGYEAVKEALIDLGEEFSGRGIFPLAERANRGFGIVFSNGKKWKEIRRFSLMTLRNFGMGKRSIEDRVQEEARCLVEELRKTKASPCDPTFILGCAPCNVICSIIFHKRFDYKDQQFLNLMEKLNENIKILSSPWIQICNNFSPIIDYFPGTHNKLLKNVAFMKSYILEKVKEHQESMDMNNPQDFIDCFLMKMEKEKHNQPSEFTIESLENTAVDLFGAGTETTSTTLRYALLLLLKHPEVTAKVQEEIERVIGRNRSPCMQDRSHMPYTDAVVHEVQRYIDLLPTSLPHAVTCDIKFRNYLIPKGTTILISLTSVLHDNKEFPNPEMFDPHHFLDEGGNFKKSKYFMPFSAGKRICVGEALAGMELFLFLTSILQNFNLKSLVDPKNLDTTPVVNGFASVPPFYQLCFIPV
P-gp, sequence (P08183 whole entry): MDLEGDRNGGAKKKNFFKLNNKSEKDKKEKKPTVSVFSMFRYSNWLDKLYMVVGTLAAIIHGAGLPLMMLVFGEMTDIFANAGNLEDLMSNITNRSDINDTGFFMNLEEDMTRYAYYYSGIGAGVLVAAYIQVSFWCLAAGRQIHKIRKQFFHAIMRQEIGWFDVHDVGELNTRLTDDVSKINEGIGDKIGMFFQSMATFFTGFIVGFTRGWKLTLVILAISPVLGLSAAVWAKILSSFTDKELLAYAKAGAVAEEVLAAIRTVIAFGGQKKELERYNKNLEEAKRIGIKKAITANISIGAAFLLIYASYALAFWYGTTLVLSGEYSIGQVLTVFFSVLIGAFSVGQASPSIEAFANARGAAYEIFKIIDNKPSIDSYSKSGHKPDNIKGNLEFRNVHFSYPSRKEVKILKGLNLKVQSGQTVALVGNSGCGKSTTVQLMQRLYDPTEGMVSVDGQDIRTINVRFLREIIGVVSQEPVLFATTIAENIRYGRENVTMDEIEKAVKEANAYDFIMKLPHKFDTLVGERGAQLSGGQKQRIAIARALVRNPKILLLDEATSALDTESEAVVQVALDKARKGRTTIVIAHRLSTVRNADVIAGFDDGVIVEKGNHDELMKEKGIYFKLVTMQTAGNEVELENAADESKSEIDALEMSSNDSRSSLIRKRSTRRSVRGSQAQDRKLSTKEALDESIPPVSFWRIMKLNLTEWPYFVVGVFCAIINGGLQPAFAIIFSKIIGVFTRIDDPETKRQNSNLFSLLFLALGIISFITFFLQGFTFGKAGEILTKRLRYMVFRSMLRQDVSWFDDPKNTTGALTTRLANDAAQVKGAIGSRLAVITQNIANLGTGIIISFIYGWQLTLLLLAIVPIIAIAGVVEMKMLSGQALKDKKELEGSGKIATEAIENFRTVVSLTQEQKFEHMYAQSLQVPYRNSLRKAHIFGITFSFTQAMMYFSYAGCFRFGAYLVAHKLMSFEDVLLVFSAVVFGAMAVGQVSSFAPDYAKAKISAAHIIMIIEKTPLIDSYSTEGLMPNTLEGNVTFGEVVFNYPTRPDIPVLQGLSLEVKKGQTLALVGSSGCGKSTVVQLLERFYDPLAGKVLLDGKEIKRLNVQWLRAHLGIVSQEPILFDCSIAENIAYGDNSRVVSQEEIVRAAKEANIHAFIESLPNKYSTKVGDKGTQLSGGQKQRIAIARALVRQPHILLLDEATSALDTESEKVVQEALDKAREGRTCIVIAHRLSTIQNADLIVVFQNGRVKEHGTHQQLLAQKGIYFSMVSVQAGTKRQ

As for `CC[C@H](C)C(=O)O[C@H]1C[C@H](O)C=C2C=C[C@H](C)[C@H](CC[C@@H](O)C[C@@H](O)CC(=O)O)[C@H]21` [Pravastatin, pravastatin], in data set [1] (setting [21]), the “observed-to-predicted AUC ratio” value is listed as 1.03 and the “observed-to-predicted Cmax ratio” value is on record as 1.10.
Take `O=C1Nc2ccc(Cl)cc2[C@@](C#CC2CC2)(C(F)(F)F)O1` [Efavirenz]: the EC50 in [2] (read-out: EC50 induction CYP3A4) is […]. The “Emax induction CYP3A4” value in data set [2] is […]. Moreover, the “Emax induction CYP2B6” value in [3] is on record as 5.76.
`CCc1nc2c(C)cc(N3CCN(CC(=O)N4CC(O)C4)CC3)cn2c1N(C)c1nc(-c2ccc(F)cc2)c(C#N)s1` [Ziritaxestat, ziritaxestat]: the half-maximal inhibitory concentration (IC50) is 3.7 µM in data set [4]; above 40 µM in data set [7]; 7.04 µM in [11]; above 40 µM in [13]; 13.1 µM in [16]. For the same compound, the apparent permeability coefficient (Papp) in data set [5] is 47 ×10⁻⁶ cm/s; in [8] it was 120 ×10⁻⁶ cm/s. In [6] (200 mg and 600 mg daily doses vs placebo), the “mortality (in words)” value is on record as “increased mortality compared with placebo”. The “efficacy in IPF (in words)” value in data set [6] (200 mg and 600 mg daily doses) is “failed to demonstrate efficacy”. The “inhibitory potential for OATP1B1 (in words)” value in [9] is recorded as “weak”. Besides, in data set [10] (human, in vivo), the “classification as CYP3A4 substrate” value was “moderately sensitive CYP3A4 substrate”. In data set [10] (ziritaxestat 600 mg SD with/without voriconazole 800 mg SD, data on file), the “AUC0–∞ ratio, observed DDI ratio” value stood at 4.0. In data set [12], the inhibitory constant (Ki) came to 0.753 µM. In data set [12], the “time-dependent inhibition of CYP2C8 (in words)” value was “strong”. The figures for the unbound share (fraction unbound) in data set [12] (human) and in [16] (human) were 0.52 and 0.24, respectively. The fraction absorbed entry in [14] (600 mg dose) is “at least 86%”. Also, the hepatic first-pass metabolism in data set [14] is listed as 9%. Further, in data set [14], the “volume of distribution at steady state from observed data, mean [SD]” value was 23 [11] L. For the same compound, in data set [14] (single p.o. 600 mg [14C]-ziritaxestat, healthy male subjects), the “renal excretion of total radioactivity” value is below 7%. The “[14C]-ziritaxestat metabolized by CYP3A4” value in data set [15] (10 μM) came out at 84.5%; in data set [15] (100 μM) it was 28.6%. The solubility in [17] (FaSSIF) was 540 µg/mL (≈ 917 µM); in [17] (buffer, pH 7.5, aqueous buffer), 66 µg/mL (≈ 112 µM). In [17] (octanol/water, pH 8.25), the logD is 3.81. Further, the figures for the pKa in data set [17] (pKa1 (base)) and in data set [17] (pKa2 (base)) were 4.99 and 5.89, respectively. Further, in [18], the “contribution of other CYP isoforms to metabolism (maximum)” value was at most 2.1%.
As to `CC(=O)N1CCN(c2ccc(OCC3COC(Cn4ccnc4)(c4ccc(Cl)cc4Cl)O3)cc2)CC1` (stereo not shown) [Ketoconazole], the “observed-to-predicted AUC ratio” value in data set [1] (efavirenz verification with ketoconazole as victim) is recorded as 0.90.
As to `COC(=O)c1ccc2c(c1)NC(=O)/C2=C(\Nc1ccc(N(C)C(=O)CN2CCN(C)CC2)cc1)c1ccccc1` [Nintedanib, nintedanib], the “increase in nintedanib exposure with ziritaxestat” value in [10] (clinical DDI study, data on file) is recorded as “approximately two‐fold”. For the same compound, the “reduction of nintedanib exposure by pirfenidone” value in data set [19] is given as 1.5 fold. In addition, in [20], the “contribution of CYP3A4 to metabolism” value is on record as ~ 7%.
